# Results taken from patent publication US20250213707A1, “COMPOUND FOR INCREASING EFFICACY OF ONCOLYTIC VIRUSES” (ABLEVIA BIOTECH GMBH, priority 2022, published 2025).
# Ends that are not written are not given here.
# Key:
# [1] = tested on: IgG from human donors (anti-AAV antibodies); assay: Screen for anti-AAV antibodies in human sera, 2452 linear 15-amino-acid AAV peptides on microarrays (Table 1); type: binding; design: key to group I: X: the deduplicated aggregate of the respective top 10 peptide hits for each donor was compiled and designated as group I; key to group II: X: the deduplicated aggregate of the respective top 25 peptide hits for each donor was compiled and designated as group II; key to group III: X: the deduplicated aggregate of the respective top 50 peptide hits for each donor was compiled and designated as group III; settings: human donor IgG binding to linear 15-amino-acid AAV peptides on microarray, fluorescence; for group II: membership in deduplicated aggregate of top 25 peptide hits for each donor; for group III: membership in deduplicated aggregate of top 50 peptide hits for each donor; for group I: membership in deduplicated aggregate of top 10 peptide hits for each donor
# Outline: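 Protein G-purified IgG from human donor blood incubated with microarrays of 2452 linear 15-mer peptides from 16 AAVs; binding read by fluorescence. Background-subtracted signals ranked per donor, with top 10, 25, 50 and 250 hits pooled and deduplicated into groups I-IV.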
# [2] = tested on: polyclonal antibody ab6982; assay: Epitope mapping of polyclonal antibody ab6982 against cyclic peptides of Ad5 fiber and hexon (peptide array); type: binding, rabbits; settings: cyclic peptides of fiber protein (clusters 1-7)
sequence,measurement,setting,value
KSNNVEFAVNTEGV [SEQ ID NO: 2016],group II,[1],X
same,group III,[1],X
same,antibody binding signal ranking from the microarray experiment,[2],009
KSTSVDFAVNTEGV [SEQ ID NO: 2025],group II,[1],X
same,group III,[1],X
same,antibody binding signal ranking from the microarray experiment,[2],039
LFNIQVKEVTTNDG (REGION 1..14: note = peptide derived from viral capsid protein) [SEQ ID NO: 2047],group II,[1],X
same,group III,[1],X
same,antibody binding signal ranking from the microarray experiment,[2],172
LQRGNRQAATADVN (REGION 1..14: note = peptide derived from viral capsid protein) [SEQ ID NO: 2026],group II,[1],X
same,group III,[1],X
same,antibody binding signal ranking from the microarray experiment,[2],044
LSKTANDNNNSNFP (REGION 1..14: note = peptide derived from viral capsid protein) [SEQ ID NO: 1988],group I,[1],X
same,group II,[1],X
same,group III,[1],X
same,antibody binding signal ranking from the microarray experiment,[2],001
MASHKDDEEKFFPM [SEQ ID NO: 1989],group I,[1],X
same,group II,[1],X
same,group III,[1],X
same,antibody binding signal ranking from the microarray experiment,[2],002
MATNNQSLALGETT [SEQ ID NO: 2022],group II,[1],X
same,group III,[1],X
same,antibody binding signal ranking from the microarray experiment,[2],021
MNPGPAMASHKEGE [SEQ ID NO: 2017],group II,[1],X
same,group III,[1],X
same,antibody binding signal ranking from the microarray experiment,[2],011
MVPQYGYCGVVTGK [SEQ ID NO: 2035],group II,[1],X
same,group III,[1],X
same,antibody binding signal ranking from the microarray experiment,[2],070
NEADAAALEHDKAY (REGION 1..14: note = peptide derived from viral capsid protein) [SEQ ID NO: 2004],group II,[1],X
same,group III,[1],X
same,antibody binding signal ranking from the microarray experiment,[2],163
NLQAANLALGETTR [SEQ ID NO: 2020],group II,[1],X
same,group III,[1],X
same,antibody binding signal ranking from the microarray experiment,[2],016
NNFQFSYTFEDVPF (REGION 1..14: note = peptide derived from viral capsid protein) [SEQ ID NO: 1990],group I,[1],X
same,group II,[1],X
same,group III,[1],X
same,antibody binding signal ranking from the microarray experiment,[2],003
NPVATEQYGSVSTN (REGION 1..14: note = peptide derived from viral capsid protein) [SEQ ID NO: 2005],group II,[1],X
same,group III,[1],X
same,antibody binding signal ranking from the microarray experiment,[2],004
NQTDRNAFYCLEYF [SEQ ID NO: 2036],group II,[1],X
same,group III,[1],X
same,antibody binding signal ranking from the microarray experiment,[2],072
PEPADVFMIPQYGY [SEQ ID NO: 2029],group II,[1],X
same,group III,[1],X
same,antibody binding signal ranking from the microarray experiment,[2],029
PQILIKNTPVPANP (REGION 1..14: note = peptide derived from viral capsid protein) [SEQ ID NO: 2006],group II,[1],X
same,group III,[1],X
same,antibody binding signal ranking from the microarray experiment,[2],006
PVDQSPQEPDSSSG [SEQ ID NO: 1991],group I,[1],X
same,group II,[1],X
same,group III,[1],X
same,antibody binding signal ranking from the microarray experiment,[2],005
PVPADPPTAFNKDK (REGION 1..14: note = peptide derived from viral capsid protein) [SEQ ID NO: 2018],group II,[1],X
same,group III,[1],X
same,antibody binding signal ranking from the microarray experiment,[2],012
PVPADPPTTFNQSK (REGION 1..14: note = peptide derived from viral capsid protein) [SEQ ID NO: 2027],group II,[1],X
same,group III,[1],X
same,antibody binding signal ranking from the microarray experiment,[2],047
PVPANPPTTFSPAK [SEQ ID NO: 1992],group I,[1],X
same,group II,[1],X
same,group III,[1],X
same,antibody binding signal ranking from the microarray experiment,[2],010
PYLRYHADAEFQER [SEQ ID NO: 2013],group II,[1],X
same,group III,[1],X
same,antibody binding signal ranking from the microarray experiment,[2],118
QIFADSSYELPYVM [SEQ ID NO: 2041],group II,[1],X
same,group III,[1],X
same,antibody binding signal ranking from the microarray experiment,[2],112
QQRLSKTANDNNNS [SEQ ID NO: 1993],group I,[1],X
same,group II,[1],X
same,group III,[1],X
same,antibody binding signal ranking from the microarray experiment,[2],019
QQRVSKTSADNNNS (REGION 1..14: note = peptide derived from viral capsid protein) [SEQ ID NO: 2007],group II,[1],X
same,group III,[1],X
same,antibody binding signal ranking from the microarray experiment,[2],015
QSSNTAPTTRTVND (REGION 1..14: note = peptide derived from viral capsid protein) [SEQ ID NO: 1994],group I,[1],X
same,group II,[1],X
same,group III,[1],X
same,antibody binding signal ranking from the microarray experiment,[2],024
QTGDADSVPDPQPL (not fully specified) [SEQ ID NO: 2008],group II,[1],X
same,group III,[1],X
same,antibody binding signal ranking from the microarray experiment,[2],056
QVKEVTTNDGVTTI (REGION 1..14: note = peptide derived from viral capsid protein) [SEQ ID NO: 2048],group II,[1],X
same,group III,[1],X
same,antibody binding signal ranking from the microarray experiment,[2],173
RDTDMFGQIADNNQ [SEQ ID NO: 2037],group II,[1],X
same,group III,[1],X
same,antibody binding signal ranking from the microarray experiment,[2],073
RDWQRLINNNWGLR [SEQ ID NO: 2038],group II,[1],X
same,group III,[1],X
same,antibody binding signal ranking from the microarray experiment,[2],082
RVSKTKTDNNNSNF [SEQ ID NO: 2049],group II,[1],X
same,group III,[1],X
same,antibody binding signal ranking from the microarray experiment,[2],178
SDSEYQLPYVLGSA [SEQ ID NO: 2050],group II,[1],X
same,group III,[1],X
same,antibody binding signal ranking from the microarray experiment,[2],197
SKTANDNNNSNFPW (REGION 1..14: note = peptide derived from viral capsid protein) [SEQ ID NO: 1995],group I,[1],X
same,group II,[1],X
same,group III,[1],X
same,antibody binding signal ranking from the microarray experiment,[2],035
SNYNKSVNVDFTVD (REGION 1..14: note = peptide derived from viral capsid protein) [SEQ ID NO: 1996],group I,[1],X
same,group II,[1],X
same,group III,[1],X
same,antibody binding signal ranking from the microarray experiment,[2],040
SQSLDRLMNPLLDQ [SEQ ID NO: 2054],group II,[1],X
same,group III,[1],X
same,antibody binding signal ranking from the microarray experiment,[2],028
STGQVAVQIEWEIE [SEQ ID NO: 2055],group II,[1],X
same,group III,[1],X
same,antibody binding signal ranking from the microarray experiment,[2],049
THSTLDGRWSALTP (REGION 1..14: note = peptide derived from viral capsid protein) [SEQ ID NO: 2042],group II,[1],X
same,group III,[1],X
same,antibody binding signal ranking from the microarray experiment,[2],117
